Results on six substances are retold here after patent US11926679B2, “Oligopeptide search method, oligopeptide, modified peptide, and immunoassay method” (ZEON CORPORATION, priority 2016, dated 2024).

A short description of assay [1]: Evaluation of adhesiveness to the container (anti-6-His detection, absorbance at 450 nm). In kind it is binding. How it is done:
Polypeptide 1, Polypeptide 2, and a human normal IgG antibody (manufactured by Wako Pure Chemical Industries, Ltd.) were dissolved in a PBS solution and 10% DMSO in PBS (10% DMSO PBS) each in a concentration of 10 μg/ml to give various solutions.
To a 96-well plate obtained by injection molding of a hydride of a norbornene-based ring-opened polymer [Zeonor® 1060R, manufactured by Zeon Corporation] (hereinafter referred to as a “1060R plate”) and a 96-well plate made of polystyrene (product name “Falcon® (Falcon is a registered trademark in Japan, other countries, or both)”, manufactured by Corning Incorporated; hereinafter referred to as a “TCPS plate”), each of the polypeptide solutions prepared above was added in an amount of 50 μL/well (N=3) and the plates were allowed to stand at room temperature (25° C.) for 1 hour.
After allowed to stand, the insides of the wells of the 1060R plate and the TCPS plate were washed three times with T-TBS (0.05 m Tris hydrochloric acid, 0.15 m sodium chloride, 0.05% Tween® 20; pH 7.6). […]
For the wells of each plate, the absorbance at 450 nm was measured using a well plate reader apparatus (manufactured by CORONA ELECTRIC Co., Ltd.).

For assay [2], the system named is CHO (Chinese Hamster Ovary) cells. Kind of assay: CHO cell shape on polypeptide-coated 1060R plate. Type of assay: cell-based. To be noted: microscope, 5 hours after the start of culture, serum-free medium, coating 10 μg/ml. On the procedure: Each of the solutions which this Polypeptide 3 and Polypeptide 2 obtained in Example 2 were dissolved in PBS in a concentration of 10 μg/ml respectively was filter-sterilized. To an EOG-sterilized 1060R plate, 50 μL per well of each of the resultant solution was added. The plates were allowed to stand at room temperature (25° C.) for 1 hour.
After allowed to stand, each of the 1060R plates incubated with Polypeptide 3 and Polypeptide 2 obtained in Example 2 was washed three times with sterilized PBS to obtain a Polypeptide 3-coated 1060R plate and a Polypeptide 2-coated 1060R plate.
To wells of the two plates thus obtained and a 1060R plate that was not coated with a polypeptide, CHO (Chinese Hamster Ovary) cells suspended in a serum-free medium (serum free medium ESF SFM Serum⋅Free Medium for Hybridoma, CHO & 293 Cells, manufactured by Expression Systems, LLC) were added and maintained the culture in a CO2 incubator at 37° C.

Assay [3] in a line: Phage display peptide library search on norbornene-based polymer culture dish. In kind it is binding. To be noted: tertiary phage solutions; washes with PBS, Glycine HCl pH 2, Glycine NaOH pH 10, then PBS containing 10% DMSO. How it is done: As a phage display peptide library, Ph.D.-C7C Phage Display Peptide Library Kit (manufactured by New England Biolabs Japan Inc.) was used.
The phage solution was dissolved in a phosphate buffer (PBS; a mixed solution of 137 mmol/l NaCl, 8.1 mmol/l Na2HPO4, 2.68 mmol/l KCl, and 1.47 mmol/l KH2PO4, pH 7.4) to give a peptide library.
Thereafter, the bottom of the culture dish was washed three times with PBS.
Subsequently, it was washed once with 40 mM Glycine HCl Buffer (pH 2.2) adjusted to pH 2, and further, 40 mM Glycine NaOH (pH 10) adjusted to pH 10 was added dropwise to it.
The dropped solution was collected, and the pH was immediately neutralized with a dilute hydrochloric acid (pH=7.0) to obtain a “phage solution washed with an alkali and collected”.
Subsequently, a PBS containing 10% DMSO was added dropwise to the bottom of the culture dish, and the dropped solution was collected to obtain a “phage solution washed with DMSO and collected.” […]
The gene sequences of the phages contained in the two phage solutions obtained by acquisition of the tertiary phage solutions were read to obtain corresponding amino acid sequences.

The nature of assay [4]: Blocking effect against non-specific adsorption of antibody, 1060R plate. To be noted: solution containing no protein, 0.05% or 0.2% in PBS, FIG. 8. An excerpt: (§1) The container on which the synthetic BNP antigen was immobilized was blocked in the same manner as in Example 5, using a phosphate buffered saline containing 10% blocking agent (manufactured by NACALAI TESQUE, INC., product name “Blocking One”) containing a widely used casein (“Blocking One having a final concentration of 10%”), a phosphate buffered saline containing 0.05% Tween® 20 (“Tween® 20 PBS having a final concentration of 0.05%”), and a phosphate buffered saline containing 0.2% Tween® 20 (“Tween® 20 PBS having a final concentration of 0.2%”) as blocking agents, and compared to the condition without the blocking treatment.
(§2) As microwell plates, the 1060R plate (experimental example) and the PS plate (comparative example) were used. […]
(§3) After the resultant was allowed to stand, the solution in the wells was removed, followed by washing three times with a phosphate buffered saline containing 0.05% Tween® 20. […] After adding 0.1 M sulfuric acid as a stop solution, the absorbance at 450 nm was measured with a light absorption plate reader.
(§4) The value for each condition was determined using the relative value to the measured absorbance value of the well that was not subjected to blocking in the 1060R plate.

Assay [5] can be described thus: Blocking effect against non-specific adsorption of antibody, PS plate. To be noted: containing no protein, FIG. 8.
From the text: as §1, §2, §3, §4

Assay [6] can be described thus: Adsorption of antigen to multi-well plate, 1060R plate. Type of assay: binding. To be noted: FIG. 6. An excerpt: (§5) The condition for adsorption of an antigen to a multi-well plate was examined. A comparison of adsorption of an antigen was made by using a 96-well plate obtained by injection molding of a hydride of a norbornene-based ring-opened polymer [Zeonor® 1060R, manufactured by Zeon Corporation] (hereinafter referred to as a “1060R plate”) and a 96-well plate made of polystyrene (product name “SUMILON® (SUMILON is a registered trademark in Japan, other countries, or both) ELISA Plate H”, manufactured by Sumitomo Bakelite Co., Ltd.; hereinafter referred to as a “PS plate”).
(§6) A peptide in which the amino acid sequence of […](SEQ ID NO: 7) that has the property of specifically attaching to a norbornene-based polymer is bound to the N terminal of the amino acid sequence of Cys-Lys-Val-Leu-Arg-Arg-His (SEQ ID NO: 6) of the antibody recognition site of the human BNP (brain natriuretic peptide) (hereinafter referred to as a “synthetic BNP antigen”) was synthesized. […]
(§7) Then, the synthetic BNP antigen immobilized in the plate was allowed to develop a color using a coloring reagent (manufactured by NACALAI TESQUE, INC., product name “ELISA POD Substrate TMB Solution”), and quenched with a dilute sulfuric acid, followed by measuring the absorbance at 450 nm by an absorbance plate reader.

A short description of assay [7]: Adsorption of antigen to multi-well plate, PS plate. In kind it is binding. To be noted: FIG. 6.
From the text: as §5, §6, §7

In the case of ACTVDSCLTCGGGGGHHHHHH [Polypeptide 2], the “absorbance at 450 nm of the 1060R plate compared with the TCPS plate” value in assay [1] (10 μg/ml polypeptide, 1 hour at room temperature, FIG. 2) is reported as “higher than that of the TCPS plate”. For the same substance, the “adhesiveness to a norbornene-based polymer” value in assay [1] (conclusion from FIG. 2) is “high adhesiveness”. Also, in assay [2], the “shape of CHO cells on coated 1060R plate” value is reported as “rounded shapes”. Take “ACTVDSCLTCGGGGGRGDSPHHHHHH [Polypeptide 3]”: in assay [2], the “shape of CHO cells on coated 1060R plate” value was “shapes in which the cells were stretched”. Take TVDNSLA [Thr-Val-Asp-Asn-Ser-Leu-Ala]: in assay [3], the “adhesion/elution behaviour of the amino acid sequence on the norbornene-based polymer dish” value is “eluting at a high pH”. Same read-out and setting: then TVDSCLT [Thr-Val-Asp-Ser-Cys-Leu-Thr], with “continued to adhere even after washed with an alkali and was eluted with an organic solvent”.

“polyoxyethylene sorbitan monolaurate [Tween® 20]”: the “blocking effect (relative absorbance at 450 nm)” value was “a blocking effect was observed” in assay [4] and “a blocking effect was lower as compared to a blocking agent containing a protein” in assay [5]. In the case of “synthetic BNP antigen: peptide in which SEQ ID NO: 7 (norbornene polymer-attaching sequence) is bound to the N terminal of SEQ ID NO: 6, antibody recognition site of human BNP (ACTVDSCLTCGGGGGSSSGLGCKVLRRH)”, the figures for the “attachment of antigen to the plate (absorbance at 450 nm)” value in assay [6] and in assay [7] were “attached” and “not attached”, respectively.
